Measured values reported in patent US20200095241A1, “SUBSTITUTED 1,2,4-THIADIAZOLYLPYRROLONES AND 1,2,4-THIADIAZOLYLHYDANTOINS AND SALTS THEREOF AND USE THEREOF AS HERBICIDES” (Bayer CropScience Aktiengesellschaft, priority 2016, published 2020).

Key:
[1] = tested on: Poa annua; test: Pre-emergence herbicidal action; assay type: in vivo; settings: 1280 g/ha, after about 3 weeks
Text: (§1) Seeds of monocotyledonous and dicotyledonous weed plants and crop plants were placed in plastic or organic planting pots and covered with soil. The compounds of the invention, formulated in the form of wettable powders (WP) or as emulsion concentrates (EC), were then applied onto the surface of the covering soil as aqueous suspension or emulsion with addition of 0.5% additive at a water application rate of 600 l/ha (converted). After the treatment, the pots were placed in a greenhouse and kept under good growth conditions for the test plants. After about 3 weeks, the effect of the preparations was scored visually in comparison with untreated controls as percentages. For example, 100% activity=the plants have died, 0% activity=like control plants. Tables B1 to B15 below show the effects of selected compounds of the general formula (I) according to Tables I.1 to I.44 on various harmful plants and an application rate corresponding to 1280 g/ha or 320 g/ha, which were obtained by the experimental procedure mentioned above.

[2] = tested on: Matricaria inodora; test: Pre-emergence herbicidal action; assay type: in vivo; settings: after about 3 weeks; for Matricaria inodora, herbicidal effect scored visually / pest or weed control at 1280 g/ha: 1280 g/ha
Text: as §1

[3] = tested on: Stellaria media; test: Pre-emergence herbicidal action; assay type: in vivo; settings: after about 3 weeks
Text: as §1

[4] = tested on: Abutilon theophrasti; test: Post-emergence herbicidal action; assay type: in vivo; settings: about 3 weeks after treatment
Experimental: (§2) Seeds of monocotyledonous and dicotyledonous weeds and crop plants were placed in sandy loam in plastic or wood-fiber pots, covered with soil and cultivated in a greenhouse under controlled growth conditions. 2 to 3 weeks after sowing, the test plants were treated at the one-leaf stage. The compounds of the invention, formulated in the form of wettable powders (WP) or as emulsion concentrates (EC), were then sprayed onto the green parts of the plants as aqueous suspension or emulsion with addition of 0.5% additive at a water application rate of 600 l/ha (converted). After the test plants had been kept in the greenhouse under optimum growth conditions for about 3 weeks, the activity of the preparations was rated visually in comparison to untreated controls. For example, 100% activity=the plants have died, 0% activity=like control plants. Tables A1 to A12 below show the effects of selected compounds of the general formula (I) according to Tables I.1 to I.44 on various harmful plants and an application rate corresponding to 1280 g/ha or 320 g/ha, which were obtained by the experimental procedure mentioned above.

[5] = tested on: Stellaria media; test: Post-emergence herbicidal action; assay type: in vivo; settings: about 3 weeks after treatment; for Stellaria media, herbicidal activity rated visually / pest or weed control at 1280 g/ha: 1280 g/ha
Experimental: as §2

[6] = tested on: Amaranthus retroflexus; test: Post-emergence herbicidal action; assay type: in vivo; settings: about 3 weeks after treatment
Experimental: as §2

[7] = target: T1, photosystem II (PS II) (Spinacia oleracea, UniProt P69560); test: Measurement of the PS II activity in thylakoid membranes (DCPIP reduction); assay type: biochemical; settings: 100 μM test compound, spinach thylakoid membranes, DCPIP 120 μM, 10 min at 22° C. with exposure to light; for inhibition at 100 µM (stock): read-out: Effect (inhibition of PS II activity)
T1 construct: the chloroplasts were osmotically ruptured and the thylakoid membranes were then obtained by centrifugation; from tissue; host or cells: fresh spinach leaves; thylakoid membranes isolated from chloroplasts
Experimental: Cooled fresh spinach leaves were comminuted and homogenized in 50 mM phosphate buffer, pH 6.8. 10 mM KCl, 0.34 M sucrose (sucrose buffer) (blender, 1 g of plant material/ml). The homogenate was subsequently filtered through 4 layers of Miracloth and the chloroplasts were isolated by centrifugation, i.e. 10 min of centrifugation at 4400×g (4° C.). The sediment was suspended in 25 ml of sucrose buffer and re-centrifuged for 10 min at 4400×g (4° C.). The sediment was then suspended in 40 ml of 50 mM phosphate buffer, pH 6.8, 10 mM KCl, without sucrose. In this step, the chloroplasts were osmotically ruptured and the thylakoid membranes were then obtained by centrifugation (10 min, 4400×g, 4° C.). The membrane sediment was finally suspended in 20 ml of 50 mM phosphate buffer, pH 6.8, 10 mM KCl. Following protein determination and activity determination, the membrane suspension was divided into aliquots and frozen in liquid nitrogen. The aliquots were stored at −80° C. Under these conditions, the photosystem II preparation was storage stable for at least three months. The activity determination of photosystem II (PS II) was then carried out using the following test principle:
The electron transfer from PS II to an artificial electron acceptor, 2,6-dichlorophenolindophenol (DCPIP), was measured with exposure to light. The concentration of the blue oxidized form of DCPIP was determined spectrophotometrically at wavelength λ=595 nm. […] The activity determination was carried out in microtiter plates (96 cavities) in a reaction volume of 200 μl. Here, 155 μl of dilute membrane suspension were initially charged in 50 mM of phosphate buffer, pH 6.8, 10 mM KCl. Depending on the activity of the PS II preparation, the dilution was adjusted such that the measurement of the decrease in absorption (λ=595 nm) was linear for at least 10 min. In each case 5 μl solution of the test compounds of a concentration of 100 μM in DMSO were added to the enzyme suspension; controls contained 5 μl DMSO; the final concentration of DMSO in the reaction batch was thus 2.5% (v/v); this concentration had no adverse effect on the enzymatic activity. On each microtiter plate, a known PS II inhibitor, for example metribuzin, was used as standard, which allowed the quality of the PS II test to be assessed. The reaction was started by addition of 40 μl DCPIP solution (600 μM in distilled water); the final concentration of DCPIP was 120 μM. Measurement of absorption was carried out over a period of 10 min at 22° C. and with exposure to light. Using metribuzin as comparative substance, the results for the efficacy of the compounds of the general formula (I) at 100 μM are stated in the table below using the following classification: ++++ (inhibition≥90%), +++ ([…]≥70%), ++ (70%>inhibition≥50%), + (50%>inhibition≥30%).

[8] = tested on: Lolium rigidum; test: Pre-emergence herbicidal action; assay type: in vivo; settings: 1280 g/ha, after about 3 weeks
Text: as §1

[9] = tested on: Setaria viridis; test: Pre-emergence herbicidal action; assay type: in vivo; settings: 1280 g/ha, after about 3 weeks; for pest or weed control at 1280 g/ha: Setaria viridis, 504 h, read-out: Setaria viridis, herbicidal effect scored visually
Text: as §1

[10] = tested on: Amaranthus retroflexus; test: Pre-emergence herbicidal action; assay type: in vivo; settings: 1280 g/ha, after about 3 weeks
Text: as §1

[11] = tested on: Viola tricolor; test: Pre-emergence herbicidal action; assay type: in vivo; settings: after about 3 weeks
Text: as §1

[12] = tested on: Setaria viridis; test: Post-emergence herbicidal action; assay type: in vivo; settings: about 3 weeks after treatment
Experimental: as §2

[13] = tested on: Viola tricolor; test: Post-emergence herbicidal action; assay type: in vivo; settings: 504 h, about 3 weeks after treatment, read-out: Viola tricolor, herbicidal activity rated visually
Experimental: as §2

[14] = tested on: Polygonum convolvulus; test: Post-emergence herbicidal action; assay type: in vivo; settings: about 3 weeks after treatment
Experimental: as §2

[15] = tested on: Pharbitis purpurea; test: Post-emergence herbicidal action; assay type: in vivo; settings: about 3 weeks after treatment
Experimental: as §2

[16] = tested on: Matricaria inodora; test: Post-emergence herbicidal action; assay type: in vivo; settings: 1280 g/ha, about 3 weeks after treatment
Experimental: as §2

[17] = tested on: Alopecurus myosuroides; test: Pre-emergence herbicidal action; assay type: in vivo; settings: 1280 g/ha, after about 3 weeks
Text: as §1

[18] = tested on: Polygonum convolvulus; test: Pre-emergence herbicidal action; assay type: in vivo; settings: 1280 g/ha, after about 3 weeks
Text: as §1

[19] = tested on: Veronica persica; test: Post-emergence herbicidal action; assay type: in vivo; settings: 1280 g/ha, about 3 weeks after treatment
Experimental: as §2

[20] = Tripleurospermum inodorum, 504 h, read-out: Matricaria inodora, herbicidal effect scored visually
[21] = Stellaria media, 504 h, 1280 g/ha, read-out: Stellaria media, herbicidal effect scored visually
[22] = Stellaria media, 504 h, read-out: Stellaria media, herbicidal activity rated visually

CSc1nsc(N2C(=O)C(C)=C(C)C2O)n1 (stereo not drawn) [I.2-303] was tested, and the “Poa annua, herbicidal effect scored visually” value (from here on “Poa annua”) [1] was 90%, the “Matricaria inodora, herbicidal effect scored visually” value [2] was 100% and the “Stellaria media, herbicidal effect scored visually” value ([3]; 1280 g/ha) was 100%. The “Abutilon theophrasti, herbicidal activity rated visually” value (“Abutilon theophrasti” below) ([4]; 320 g/ha) was 100%, the “Stellaria media, herbicidal activity rated visually” value [5] was 100% and the “Amaranthus retroflexus, herbicidal activity rated visually” value ([6]; 320 g/ha) was 100%. The “Effect (inhibition of PS II activity)” value [7] was “+++ (90%≥inhibition≥70%)”.
For CC1=C(C)C(O)N(c2nc(SCCOC(F)(F)F)ns2)C1=O (stereo not drawn) [I.2-338], the “Poa annua” value [1] was 90%, the “Lolium rigidum, herbicidal effect scored visually” value [8] was 90% and the “Setaria viridis, herbicidal effect scored visually” value [9] was 90%. The “Matricaria inodora, herbicidal effect scored visually” value [2] was 90%, the “Stellaria media, herbicidal effect scored visually” value ([3]; 320 g/ha) was 90% and the “Amaranthus retroflexus, herbicidal effect scored visually” value [10] was 90%. The “Abutilon theophrasti” value ([4]; 320 g/ha) was 100%, the “Stellaria media, herbicidal activity rated visually” value [5] was 90% and the “Effect (inhibition of PS II activity)” value [7] was “++++ (inhibition≥90%)”.
COc1nsc(N2C(=O)C(C)=C(C)C2O)n1 (stereo not drawn) [I.2-363, 3,4-Dimethyl-5-hydroxy-1-(3-methoxy-1,2,4-thiadiazol-5-yl)-1,5-dihydro-2H-pyrrol-2-one] was tested, and the pest or weed control at 320 g/ha ([2]; Tripleurospermum inodorum, 504 h, 320 g/ha, read-out: Matricaria inodora, herbicidal effect scored visually) was 90%, the pest or weed control at 320 g/ha ([11]; Viola tricolor, 504 h, 320 g/ha, read-out: Viola tricolor, herbicidal effect scored visually) was 80% and the pest or weed control at 320 g/ha ([3]; Stellaria media, 504 h, 320 g/ha, read-out: Stellaria media, herbicidal effect scored visually) was 100%. For the same compound, the pest or weed control at 320 g/ha ([12]; Setaria viridis, 504 h, 320 g/ha, read-out: Setaria viridis, herbicidal activity rated visually) was 100%, the pest or weed control at 320 g/ha ([13]; 320 g/ha) was 100% and the “Polygonum convolvulus, herbicidal activity rated visually” value ([14]; 320 g/ha) was 100%. The pest or weed control at 320 g/ha ([4]; Abutilon theophrasti, 504 h, 320 g/ha, read-out: Abutilon theophrasti, herbicidal activity rated visually) was 90%, the pest or weed control at 320 g/ha ([5]; Stellaria media, 504 h, 320 g/ha, read-out: Stellaria media, herbicidal activity rated visually) was 90% and the “Pharbitis purpurea, herbicidal activity rated visually” value ([15]; 320 g/ha) was 80%. For the same compound, the inhibition at 100 µM (stock) [7] was greater than 90%.
For CC1=C(Cl)C(=O)N(c2nc(C(C)C)ns2)C1O (stereo not drawn) [I.3-5, 3-Chloro-4-methyl-5-hydroxy-1-(3-isopropyl-1,2,4-thiadiazol-5-yl)-1,5-dihydro-2H-pyrrol-2-one], the “Poa annua” value [1] was 90%, the pest or weed control at 1280 g/ha [9] was 90% and the pest or weed control at 1280 g/ha [2, 20] was 90%. For the same compound, the pest or weed control at 1280 g/ha [3, 21] was 90%, the “Matricaria inodora, herbicidal activity rated visually” value [16] was 100% and the pest or weed control at 1280 g/ha [5, 22] was 100%.
With CC1=C(Br)C(=O)N(c2nc(C)ns2)C1O (stereo not drawn) [I.5-2] the “Matricaria inodora, herbicidal effect scored visually” value [2] was 90%, the “Alopecurus myosuroides, herbicidal effect scored visually” value [17] was 80% and the “Viola tricolor, herbicidal effect scored visually” value ([11]; 1280 g/ha) was 90%. The “Polygonum convolvulus, herbicidal effect scored visually” value [18] was 80%, the “Stellaria media, herbicidal effect scored visually” value ([3]; 1280 g/ha) was 90% and the “Setaria viridis, herbicidal activity rated visually” value ([12]; 1280 g/ha) was 80%. For the same compound, the “Abutilon theophrasti” value ([4]; 1280 g/ha) was 80%.
Compound CC(C)c1nsc(N2C(=O)N(C)CC2O)n1 (stereo not drawn) [I.13-5, 4-Hydroxy-1-methyl-3-[3-(isopropyl)-1,2,4-thiadiazol-5-yl]imidazolidin-2-one] has a pest or weed control at 1280 g/ha [9] of 80%, a pest or weed control at 1280 g/ha [2, 20] of 90% and a pest or weed control at 1280 g/ha ([11]; Viola tricolor, 504 h, 1280 g/ha, read-out: Viola tricolor, herbicidal effect scored visually) of 90%. The “Polygonum convolvulus, herbicidal effect scored visually” value [18] was 90%, the pest or weed control at 1280 g/ha [3, 21] was 90% and the “Amaranthus retroflexus, herbicidal effect scored visually” value [10] was 100%. The pest or weed control at 1280 g/ha ([12]; Setaria viridis, 504 h, 1280 g/ha, read-out: Setaria viridis, herbicidal activity rated visually) was 100%, the pest or weed control at 1280 g/ha ([13]; 1280 g/ha) was 100% and the “Veronica persica, herbicidal activity rated visually” value [19] was 100%. The “Polygonum convolvulus, herbicidal activity rated visually” value ([14]; 1280 g/ha) was 90%, the pest or weed control at 1280 g/ha ([4]; Abutilon theophrasti, 504 h, 1280 g/ha, read-out: Abutilon theophrasti, herbicidal activity rated visually) was 100% and the pest or weed control at 1280 g/ha [5, 22] was 100%. For the same compound, the “Amaranthus retroflexus, herbicidal activity rated visually” value ([6]; 1280 g/ha) was 100%, the “Pharbitis purpurea, herbicidal activity rated visually” value ([15]; 1280 g/ha) was 90% and the inhibition at 100 µM (stock) [7] was 70 to 90%.
